Source: patent US8420655B2, “Benzimidazole inhibitors of leukotriene production” (Boehringer Ingelheim International GmbH, priority 2009, dated 2013)
pIC50: −log10 of the molar value.

Molecular target: T1, recombinant human FLAP protein (Homo sapiens, UniProt P20292)
T1 construct: made in house; host or cells: Sf9 insect cells (membrane fraction, 100,000 x g pellet)
T1 sequence (P20292 1-161): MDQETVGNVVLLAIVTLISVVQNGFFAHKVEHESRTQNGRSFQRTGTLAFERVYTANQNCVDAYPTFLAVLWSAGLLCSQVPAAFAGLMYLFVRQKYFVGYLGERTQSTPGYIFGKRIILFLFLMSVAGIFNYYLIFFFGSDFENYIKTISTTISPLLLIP
Assay: FLAP binding assay, displacement of iodinated (125I) FLAP inhibitor, Scintillation Proximity Assay format
Settings: [125I]L-691,831 probe, membrane protein from sf9 cells; read-out: hFLAP binding IC50
Experimental: Compounds are assessed for the ability to bind to FLAP in a binding assay that measures compound-specific displacement of an iodinated (^125I) FLAP inhibitor via a Scintillation Proximity Assay format (adapted from S. Charleson et al., Mol. Pharmacol., 1992, 41, 873-879).
Cell pellets produced from sf9 insect cells expressing recombinant human FLAP protein are resuspended in buffer A [15 mM Tris-HCl (pH 7.5), 2 mM MgCl2, 0.3 mM EDTA, 1 mM PMSF]. The cells are lysed with a Dounce homogenizer and the material is centrifuged at 10,000×g for 10 minutes. The supernatant is then collected and centrifuged at 100,000×g for 60 minutes. To prepare membrane protein for an assay, an aliquot of the 100,000×g pellet is resuspended in 1 ml of buffer A, Dounce homogenized, and finally subjected to polytron mixing (30 seconds). Membrane protein (25 μl, 5 μg) is mixed with WGA SPA beads (Amersham) and stirred for 1 h. To an assay plate (Perkin Elmer FlexiPlate) is added 25 μl of test compound prepared in Binding buffer [100 mM Tris (pH 7.5), 140 mM NaCl, 5% glycerol, 2 mM EDTA, 0.5 mM TCEP, 0.05% Tween 20], 25 μl of [^125I]L-691,831 (an iodinated analog of MK-591, Charleson et al. Mol. Pharmacol., 41, 873-879, 1992) and finally 50 μl of the bead/protein mixture. (final concentrations: beads, 200 μg/well; protein, 5 μg/well; [^125I] probe, 0 08 nM/well (17 nCi/well). The plates are shaken for 2 h before reading on a Microbeta plate reader. Non-specific binding is determined by the addition of 10 μM cold L-691,831 compound.

pIC50	SMILES
8.80	Cc1ccc(-n2cncn2)c(-c2nc3cc(-c4cnc(N)nc4)ccc3n2C(C)(C)C)c1
8.54	COc1ccc(-c2nc3cc(-c4cnc(N)nc4)ccc3n2C(C)(C)C)c(-n2cncn2)c1 [5-[1-tert-Butyl-2-(4-methoxy-2-1,2,4-triazol-1-yl-phenyl)-1H-benzimidazol-5-yl]-pyrimidin-2-ylamine]
8.80	COc1ccc(-n2cc(Cl)cn2)c(-c2nc3cc(-c4cnc(N)nc4)ccc3n2C(C)(C)C)c1 [5-{1-tert-Butyl-2-[2-(4-chloro-pyrazol-1-yl)-5-methoxy-phenyl]-1H-benzimidazol-5-yl}-pyrimidin-2-ylamine]
8.85	Cc1ncn(-c2ccc(Cl)cc2-c2nc3cc(-c4cnc(N)nc4)ccc3n2C(C)(C)C)n1 [5-{1-tert-Butyl-2-[5-chloro-2-(3-methyl-1,2,4-triazol-1-yl)-phenyl]-1H-benzimidazol-5-yl}-pyrimidin-2-ylamine]
8.74	Cc1nc(-c2ccccc2-c2nc3cc(-c4cnc(N)nc4)ccc3n2C(C)(C)C)n(C)n1 [5-{1-tert-Butyl-2-[2-(2,5-dimethyl-2H-1,2,4-triazol-3-yl)-phenyl]-1H-benzimidazol-5-yl}-pyrimidin-2-ylamine]
8.37	COc1ccc(-c2nc(C)ns2)c(-c2nc3cc(-c4cnc(N)nc4)ccc3n2C(C)(C)C)c1 [5-{1-tert-Butyl-2-[5-methoxy-2-(3-methyl-1,2,4-thiadiazol-5-yl)-phenyl]-1H-benzimidazol-5-yl}-pyrimidin-2-ylamine]
8.06	COc1ccc(-n2ccc(C)n2)c(-c2nc3cc(-c4cnc(N)nc4)ccc3n2C(C)(C)C)c1 [5-{1-tert-Butyl-2-[5-methoxy-2-(3-methyl-pyrazol-1-yl)-phenyl]-1H-benzimidazol-5-yl}-pyrimidin-2-ylamine]
8.85	Cc1ncn(-c2ccc(F)cc2-c2nc3cc(-c4cnc(N)nc4)ccc3n2C(C)(C)C)n1 [5-{1-tert-Butyl-2-[5-fluoro-2-(3-methyl-1,2,4-triazol-1-yl)-phenyl]-1H-benzimidazol-5-yl}-pyrimidin-2-ylamine]
8.77	COc1ccc(-c2csc(C)n2)c(-c2nc3cc(-c4cnc(N)nc4)ccc3n2C(C)(C)C)c1 [5-{1-tert-Butyl-2-[5-methoxy-2-(2-methyl-thiazol-4-yl)-phenyl]-1H-benzimidazol-5-yl}-pyrimidin-2-ylamine]
8.74	Cc1ccc(-c2nc(C)no2)c(-c2nc3cc(-c4cnc(N)nc4)ccc3n2C(C)(C)C)c1 [5-{1-tert-Butyl-2-[5-methyl-2-(3-methyl-1,2,4-oxadiazol-5-yl)-phenyl]-1H-benzimidazol-5-yl}-pyrimidin-2-ylamine]
8.92	Cn1ncnc1-c1ccc(Cl)cc1-c1nc2cc(-c3cnc(N)nc3)ccc2n1C(C)(C)C [5-{1-tert-Butyl-2-[5-chloro-2-(2-methyl-2H-1,2,4-triazol-3-yl)-phenyl]-1H-benzimidazol-5-yl}-pyrimidin-2-ylamine]

The remaining lines, values behind:

SMILES	pIC50
Cc1c(-c2ccc(-n3cncn3)c(-c3nc4cc(-c5cnc(N)nc5)ccc4n3C(C)(C)C)c2)cnn1C [5-{1-tert-Butyl-2-[5-(1,5-dimethyl-1H-pyrazol-4-yl)-2-[1,2,4]triazol-1-yl-phenyl]-1H-benzoimidazol-5-yl}-pyrimidin-2-ylamine]	8.40
CNC(=O)c1ccc(-n2cncn2)c(-c2nc3cc(-c4cnc(N)nc4)ccc3n2C(C)(C)C)c1 [3-[5-(2-Amino-pyrimidin-5-yl)-1-tert-butyl-1H-benzoimidazol-2-yl]-N-methyl-4-[1,2,4]triazol-1-yl-benzamide]	7.70
COc1ccc(-n2cccn2)c(-c2nc3cc(-c4cnc5c(c4)CCN5)ccc3n2C(C)(C)C)c1 [1-tert-Butyl-5-(2,3-dihydro-1H-pyrrolo[2,3-b]pyridin-5-yl)-2-(5-methoxy-2-pyrazol-1-yl-phenyl)-1H-benzimidazole]	8.82
CC(C)(C)n1c(-c2cc(Br)ccc2-n2cncn2)nc2cc(-c3cnc(N)nc3)ccc21 [5-[2-(5-Bromo-2-1,2,4-triazol-1-yl-phenyl)-1-tert-butyl-1H-benzimidazol-5-yl]-pyrimidin-2-ylamine]	8.35
CC(C)(C)n1c(-c2cc(C#N)ccc2-n2cncn2)nc2cc(-c3cnc(N)nc3)ccc21 [3-[5-(2-Amino-pyrimidin-5-yl)-1-tert-butyl-1H-benzimidazol-2-yl]-4-1,2,4-triazol-1-yl-benzonitrile]	8.51
COCCn1cnc(-c2ccccc2-c2nc3cc(-c4cnc(N)nc4)ccc3n2C(C)(C)C)n1 [5-(1-tert-Butyl-2-{2-[1-(2-methoxy-ethyl)-1H-[1,2,4]triazol-3-yl]-phenyl}-1H-benzoimidazol-5-yl)-pyrimidin-2-ylamine]	8.48
CC(C)(C)n1c(-c2cc(F)ccc2-n2cncn2)nc2cc(-c3cnc(N)nc3)ccc21	8.85
COC(=O)c1ccc(-n2cncn2)c(-c2nc3cc(-c4cnc(N)nc4)ccc3n2C(C)(C)C)c1 [3-[5-(2-Amino-pyrimidin-5-yl)-1-tert-butyl-1H-benzoimidazol-2-yl]-4-[1,2,4]triazol-1-yl-benzoic acid methyl ester]	8.57
CC(C)(C)n1c(-c2cc(-c3csc(C(=O)O)c3)ccc2-n2cncn2)nc2cc(-c3cnc(N)nc3)ccc21 [4-{3-[5-(2-Amino-pyrimidin-5-yl)-1-tert-butyl-1H-benzoimidazol-2-yl]-4-[1,2,4]triazol-1-yl-phenyl}-thiophene-2-carboxylic acid]	7.97
COC(=O)C(C)(C)Oc1ccc(-c2nc3cc(-c4cnc(N)nc4)ccc3n2C(C)(C)C)c(-n2cncn2)c1 [2-{4-[5-(2-Amino-pyrimidin-5-yl)-1-tert-butyl-1H-benzoimidazol-2-yl]-3-[1,2,4]triazol-1-yl-phenoxy}-2-methyl-propionic acid methyl ester]	8.14
CCCCC/C(=C\C(=O)O)c1ccc(-n2cncn2)c(-c2nc3cc(-c4cnc(N)nc4)ccc3n2C(C)(C)C)c1 [(E)-3-{3-[5-(2-Amino-pyrimidin-5-yl)-1-tert-butyl-1H-benzoimidazol-2-yl]-4-[1,2,4]triazol-1-yl-phenyl}-oct-2-enoic acid]	8.22
C=Cc1ccc(-n2cncn2)c(-c2nc3cc(-c4cnc(N)nc4)ccc3n2C(C)(C)C)c1 [5-[1-tert-Butyl-2-(2-1,2,4-triazol-1-yl-5-vinyl-phenyl)-1H-benzimidazol-5-yl]-pyrimidin-2-ylamine]	8.89
CC(C)(C)n1c(-c2cc(Cl)ccc2-n2cncn2)nc2cc(-c3cnc(N)nc3)ccc21 [5-[1-tert-Butyl-2-(5-chloro-2-1,2,4-triazol-1-yl-phenyl)-1H-benzimidazol-5-yl]-pyrimidin-2-ylamine]	8.52
CC(C)(C)n1c(-c2cc(C#N)ccc2-n2cnc(-c3ccccc3Cl)n2)nc2cc(-c3cnc(N)nc3)ccc21 [3-[5-(2-Amino-pyrimidin-5-yl)-1-tert-butyl-1H-benzoimidazol-2-yl]-4-[3-(2-chloro-phenyl)-[1,2,4]triazol-1-yl]-benzonitrile]	8.36
Cc1ccn(-c2ccccc2-c2nc3cc(-c4cnc(N)nc4)ccc3n2C(C)(C)C)n1 [5-{1-tert-Butyl-2-[2-(3-methyl-pyrazol-1-yl)-phenyl]-1H-benzimidazol-5-yl}-pyrimidin-2-ylamine]	8.96
CC(C)(C)n1c(-c2cc(F)ccc2-n2cccn2)nc2cc(-c3cnc(N)nc3)ccc21 [5-[1-tert-Butyl-2-(5-fluoro-2-pyrazol-1-yl-phenyl)-1H-benzimidazol-5-yl]-pyrimidin-2-ylamine]	8.77
CC(C)(C)n1c(-c2ccccc2-n2ccc(C(F)(F)F)n2)nc2cc(-c3cnc(N)nc3)ccc21 [5-{1-tert-Butyl-2-[2-(3-trifluoromethyl-pyrazol-1-yl)-phenyl]-1H-benzimidazol-5-yl}-pyrimidin-2-ylamine]	8.35
Cc1noc(-c2ccccc2-c2nc3cc(-c4cnc5[nH]ccc5c4)ccc3n2C(C)(C)C)n1 [1-tert-Butyl-2-[2-(3-methyl-1,2,4-oxadiazol-5-yl)-phenyl]-5-(1H-pyrrolo[2,3-b]pyridin-5-yl)-1H-benzimidazole]	8.92
CC(C)(C)n1c(-c2cc(I)ccc2-n2cncn2)nc2cc(-c3cnc(N)nc3)ccc21 [5-[1-tert-Butyl-2-(5-iodo-2-1,2,4-triazol-1-yl-phenyl)-1H-benzimidazol-5-yl]-pyrimidin-2-ylamine]	8.57
CC(C)NC(=O)Oc1ccc(-n2cncn2)c(-c2nc3cc(-c4cnc(N)nc4)ccc3n2C(C)(C)C)c1 [Isopropyl-carbamic acid 3-[5-(2-amino-pyrimidin-5-yl)-1-tert-butyl-1H-benzimidazol-2-yl]-4-1,2,4-triazol-1-yl-phenyl ester]	8.82
